Key:
[1] = biological target: T1, AMPK-s1 (α subunit- D148A) (Rattus norvegicus, UniProt P54645+P80385, D159A); assay: SPR analysis, AMPK mutant s1; type: binding
T1 construct: His (N); made in house
Experimental: Mammalian AMPK subunits (His-α1, β1, and γ1) were cloned into a pET-3d vector, and protein expression and purification were similar to the literature.
SPR analysis was performed with a Biacore T200 instrument (GE Healthcare). Firstly, the purred His-tagged AMPK containing α1β1γ1 protein was captured onto an activated carboxymethylated 5 (CM5) chip using amine coupling to levels ranging from 4000 RU to 6000 RU. Secondly, GENI was dissolved in PBS-P buffer solution (0.05% (v/v) Tween 20 and PBS), and the concentration of GENI was 64 μM. Thirdly, the solution of GENI was diluted to 32 μM, 16 μM, 8 μM, 4 μM, 2 μM, 1 μM and 0.5 μM with PBS-P buffer solution. The sample was filtered by pumping through a […] membrane. A gradient concentration of GENI was injected at a flow rate of 30 μL/min in a running buffer (0.05% (v/v) Tween 20 and PBS). The data were analyzed with Biacore evaluation software (T200 version 2.0) and fitted to the 1:1 Langmuir binding model, and the kinetic parameters were derived.
The non-covalent interaction between drugs and proteins is an important way to exert drug efficacy, and its mode of action and binding affinity usually determine the utilization and biological activity of drugs. AMPK is a heterotrimer complex consisting of an α subunit containing the kinase domain and two regulatory subunits (β- and γ-). […]

PC12 cells = assay: Western blot of LC3 II/LC3 I in the autophagy flow assay; type: cell-based; conditions: GENI group compared with the control group
Experimental: Western blot analysis for p-AMPK α, AMPK α, p-mTOR, mTOR, p-ULK1, ULK1, and LC3-I/II was conducted according to the information described in the materials and methods section of Supplementary Information.
1.3. Western blot analysis.
For PC12 cell samples, we seeded 2 × 10^6 PC12 cells in each 60 mm dish containing 5 mL of DMEM and incubated the dish for 24 h. For the dose-dependent experiment of GENI, GENI (1, 3 and 10 μM) was added to the dishes and incubated for a period of time (2 hours for p-AMPK α, AMPK α, 48 hours for p-mTOR, mTOR and p-ULK1, ULK1; 8 hours for LC3-I/II). Cells were then collected, lysed using RAPI lysis buffer and centrifuged. The supernatants of each group were used as protein samples. For the protein samples of autophagy flow assay, we seeded 2 × 10^6 PC12 cells in each 60 mm dish containing 5 mL of DMEM and incubated the dish for 24 h.
The GENI, rapamycin and inhibitors, such as chloroquine and 3-MA were added according to the method of autophagy flow assay. After treatment of 18 h, cells were then collected, lysed using RAPI lysis buffer and centrifuged. […] The protein concentration was measured with a BCA assay kit (Beijing Cowin Biotech Company, Beijing, China). […] Bands were quantitatively measured using ImageJ software (National Institutes of Health, Bethesda, MD, USA).

AMPK = assay: Drug affinity responsive target stability (DARTS), AMPK; type: binding; conditions: 0.1–100 μM GENI, protein: pronase 50:1
Experimental: Cells were lysed by RIPA lysis buffer, and the protein concentration was measured. The lysate was divided into six groups. Before incubation with protease (protein: pronase = 50:1 w/w for PI3K and AMPK detection, 5:1 for MAPK detection, 100:1 for p53 detection) for 25 min in 25 °C, 0.1–100 μM GENI was added to lysates and incubated for 2 h at room temperature. The samples were mixed with loading buffer and then separated on 8% SDS-PAGE for immunoblotting analysis.

T1 sequence (P54645 13-559 D159A limits assumed): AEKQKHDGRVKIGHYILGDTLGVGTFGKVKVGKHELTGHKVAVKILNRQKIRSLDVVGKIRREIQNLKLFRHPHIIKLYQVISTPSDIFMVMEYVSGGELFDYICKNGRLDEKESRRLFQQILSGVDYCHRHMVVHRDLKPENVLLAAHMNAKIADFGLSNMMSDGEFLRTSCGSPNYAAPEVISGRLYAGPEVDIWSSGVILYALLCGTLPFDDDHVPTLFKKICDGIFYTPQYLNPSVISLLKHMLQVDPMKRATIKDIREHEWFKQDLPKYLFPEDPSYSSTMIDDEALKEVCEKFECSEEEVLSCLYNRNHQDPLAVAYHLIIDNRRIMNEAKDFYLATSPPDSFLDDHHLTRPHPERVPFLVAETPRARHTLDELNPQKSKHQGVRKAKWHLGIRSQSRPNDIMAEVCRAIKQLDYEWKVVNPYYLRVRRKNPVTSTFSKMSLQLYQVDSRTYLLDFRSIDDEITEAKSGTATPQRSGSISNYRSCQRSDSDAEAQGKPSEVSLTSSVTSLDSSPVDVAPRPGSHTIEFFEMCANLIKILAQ
T1 sequence (P80386 whole entry partner): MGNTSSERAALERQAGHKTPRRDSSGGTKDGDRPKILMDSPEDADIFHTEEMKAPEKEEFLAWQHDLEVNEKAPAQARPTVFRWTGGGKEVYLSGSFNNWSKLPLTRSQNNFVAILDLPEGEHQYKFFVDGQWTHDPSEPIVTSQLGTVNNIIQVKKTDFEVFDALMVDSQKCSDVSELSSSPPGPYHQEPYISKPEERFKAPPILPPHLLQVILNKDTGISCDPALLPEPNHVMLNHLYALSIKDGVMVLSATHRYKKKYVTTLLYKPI
T1 sequence (P80385 whole entry): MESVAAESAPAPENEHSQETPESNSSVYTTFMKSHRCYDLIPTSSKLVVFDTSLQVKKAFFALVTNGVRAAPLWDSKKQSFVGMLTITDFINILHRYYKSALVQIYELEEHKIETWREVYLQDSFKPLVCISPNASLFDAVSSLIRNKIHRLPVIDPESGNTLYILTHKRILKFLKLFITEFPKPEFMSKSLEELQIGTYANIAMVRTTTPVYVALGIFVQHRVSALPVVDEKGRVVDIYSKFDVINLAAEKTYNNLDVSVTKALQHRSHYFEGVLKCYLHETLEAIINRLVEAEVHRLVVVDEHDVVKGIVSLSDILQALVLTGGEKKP

CC(C)CCOC(=O)C1=CO[C@@H](O[C@@H]2O[C@H](CO)[C@@H](O)[C@H](O)[C@H]2O)C2C(CO)=CCC12 (stereo partly shown) [GENI, Geniposidic 4-isoamyl ester]
dose-dependent response in SPR ([1]; D148 replaced with A148): No significant dose-dependent response
kon ([1]; SPR, association rate, read-out: Ka): 9360 M⁻¹ s⁻¹
LC3 II at the protein level (PC12 cells): significantly increased
stability of AMPK against pronase (DARTS) (AMPK): dramatically enhanced the stability

Source: paper PMC11763059, “GENI as an AMPK Activator Binds α and γ Subunits and Improves the Memory Dysfunction of Alzheimer’s Disease Mouse Models via Autophagy and Neuroprotection” (Antioxidants, 2025)
